Consider twelve compounds from ChEMBL document CHEMBL4052619, “First example of peptides targeting the dimer interface of Leishmania infantum trypanothione reductase with potent in vitro antileishmanial activity” (Eur J Med Chem, 2017).

The nature of data set [1]: Cytotoxicity against human THP1 cells assessed as induction of cell death after 24 hrs by propidium iodide staining based flow cytometry. To be noted: THP-1 cells, read-out: LC50. In general terms: Flow cytometry measures light scatter and fluorescence of single cells or particles in a stream.
For data set [2], the system named is Leishmania infantum. Put plainly: Antileishmanial activity against Leishmania infantum MCAN/ES/89/IPZ229/1/89 promastigotes assessed as induction of cell death after 24 hrs by propidium iodide staining based flow cytometry. The format is functional. To be noted: MCAN/ES/89/IPZ229/1/89, 24 h.
Data set [3] relates to Leishmania infantum. The experiment in a line: Antileishmanial activity against Leishmania infantum axenic amastigotes assessed as induction of cell death after 24 hrs by propidium iodide staining based flow cytometry. The class given is functional.
Another data set concerns the target Trypanothione reductase (Leishmania infantum, UniProt A4HSF7). Put plainly: Inhibition of recombinant Leishmania infantum TryR preincubated for 10 mins followed by T[S]2 substrate addition and measured after 1 hr in presence of NADPH.
In data set [4] the test system is Leishmania infantum. The experiment in a line: Antileishmanial activity against Leishmania infantum MCAN/ES/89/IPZ229/1/89 promastigotes assessed as induction of cell death at 25 uM after 24 hrs by propidium iodide staining based flow cytometry. The class given is functional.
Data set [5] concerns Leishmania infantum. The experiment in a line: Antileishmanial activity against Leishmania infantum axenic amastigotes assessed as induction of cell death at 25 uM after 24 hrs by propidium iodide staining based flow cytometry. The class given is functional.

Calls of active or inactive are those of the source. The rule behind the calls is not given here. Bridge positions count the residues as written; N and C are the ends. Square brackets hold non-standard residues; d marks the D form. Peptide text beside a SMILES is read from it. ξ: configuration not given here. ξNle = CCCCC(N)C(=O)O Where only a bound is given, the exact number is not on record here.

Trypanothione reductase, sequence (A4HSF7 whole entry): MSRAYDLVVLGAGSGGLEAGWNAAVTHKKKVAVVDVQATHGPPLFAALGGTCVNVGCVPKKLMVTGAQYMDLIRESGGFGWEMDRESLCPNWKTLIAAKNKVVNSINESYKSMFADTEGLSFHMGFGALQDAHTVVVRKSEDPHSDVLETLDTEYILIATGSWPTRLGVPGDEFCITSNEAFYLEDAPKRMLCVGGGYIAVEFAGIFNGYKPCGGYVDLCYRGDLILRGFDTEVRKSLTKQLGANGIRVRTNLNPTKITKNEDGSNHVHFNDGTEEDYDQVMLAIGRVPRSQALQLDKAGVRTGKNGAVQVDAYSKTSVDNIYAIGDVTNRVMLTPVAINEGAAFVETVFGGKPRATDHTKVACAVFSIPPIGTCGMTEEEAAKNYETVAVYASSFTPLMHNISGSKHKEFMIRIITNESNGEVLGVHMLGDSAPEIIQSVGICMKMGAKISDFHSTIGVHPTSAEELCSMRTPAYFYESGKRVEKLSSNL

Broadly, the LC50 is the concentration lethal to half of the exposed cells or organisms. Consider `CC(=O)N[C@@H](CCCNC(=N)N)C(=O)N[C@@H](CCCNC(=N)N)C(=O)N[C@@H](CCCNC(=N)N)C(=O)N[C@@H](CCCNC(=N)N)C(=O)N[C@@H](CCCNC(=N)N)C(=O)N[C@@H](CCCNC(=N)N)C(=O)N[C@@H](CCCNC(=N)N)C(=O)N[C@@H](CCCNC(=N)N)C(=O)N[C@@H](CCCNC(=N)N)C(N)=O`, for which, in data set [1], the CC50 at 24 h was greater than 25 µM. For the same compound, the LC50 in the data set on Leishmania infantum [2] and with Leishmania infantum [3] was greater than 25 µM throughout.

For `CCCCC(NC(=O)[C@H](CCCCN)NC(=O)C(CCCC)NC(=O)[C@H](CO)NC(=O)[C@@H](NC(=O)CNC(=O)[C@@H](NC(=O)[C@H](CO)NC(=O)[C@H](CCC(N)=O)NC(=O)[C@@H](NC(=O)[C@@H](NC(=O)[C@H](CCCCN)NC(=O)[C@@H]1CCCN1C(C)=O)[C@@H](C)CC)[C@@H](C)CC)C(C)C)[C@@H](C)CC)C(=O)N[C@@H](CCCNC(=N)N)C(=O)N[C@@H](CCCNC(=N)N)C(=O)N[C@@H](CCCNC(=N)N)C(=O)N[C@@H](CCCNC(=N)N)C(=O)N[C@@H](CCCNC(=N)N)C(=O)N[C@@H](CCCNC(=N)N)C(=O)N[C@@H](CCCNC(=N)N)C(=O)N[C@@H](CCCNC(=N)N)C(=O)N[C@@H](CCCNC(=N)N)C(N)=O` (stereo partly specified), the CC50 at 24 h in data set [1] was 0.8 µM. For the same compound, the LC50 was found to be 4.4 µM with Leishmania infantum [2] and 2.1 µM with Leishmania infantum [3].

With `CC(=O)NCC(=O)N[C@@H](CCCNC(=N)N)C(=O)N[C@@H](CCCCN)C(=O)N[C@@H](CCCCN)C(=O)N[C@@H](CCCNC(=N)N)C(=O)N[C@@H](CCCNC(=N)N)C(=O)N[C@@H](CCC(N)=O)C(=O)N[C@@H](CCCNC(=N)N)C(=O)N[C@@H](CCCNC(=N)N)C(=O)N[C@@H](CCCNC(=N)N)C(=O)N1CCC[C@H]1C(=O)N1CCC[C@H]1C(=O)N[C@@H](CCC(N)=O)C(N)=O`, the CC50 at 24 h in data set [1] is greater than 25 µM. The LC50 with Leishmania infantum [2] and with Leishmania infantum [3] was greater than 25 µM each time.

The term IC50 denotes the midpoint of a concentration-inhibition curve. Regarding `CCCCC(NC(=O)[C@H](CCCCN)NC(=O)C(CCCC)NC(=O)[C@H](CO)NC(=O)[C@@H](NC(=O)[C@H](CCC(=O)O)NC(=O)[C@@H](NC(=O)[C@H](CO)NC(=O)[C@H](CCC(N)=O)NC(=O)[C@@H](NC(=O)[C@@H](NC(=O)[C@H](CCCCN)NC(=O)[C@@H]1CCCN1C(C)=O)[C@@H](C)CC)[C@@H](C)CC)C(C)C)[C@@H](C)CC)C(N)=O` (stereo partly specified), the IC50 on Trypanothione reductase is greater than 75 µM. Besides, the outcome in the data set on Leishmania infantum [4] and in the data set with Leishmania infantum [5] was inactive.

In the case of `CCCCC(NC(=O)[C@H](CCCCN)NC(=O)C(CCCC)NC(=O)[C@H](CO)NC(=O)[C@@H](NC(=O)CNC(=O)[C@@H](NC(=O)[C@H](CO)NC(=O)[C@H](CCC(N)=O)NC(=O)[C@@H](NC(=O)[C@@H](NC(=O)[C@H](CCCCN)NC(=O)[C@@H]1CCCN1C(=O)[C@H](CCC(N)=O)NC(=O)[C@@H]1CCCN1C(=O)[C@@H]1CCCN1C(=O)[C@H](CCCNC(=N)N)NC(=O)[C@H](CCCNC(=N)N)NC(=O)[C@H](CCCNC(=N)N)NC(=O)[C@H](CCC(N)=O)NC(=O)[C@H](CCCNC(=N)N)NC(=O)[C@H](CCCNC(=N)N)NC(=O)[C@H](CCCCN)NC(=O)[C@H](CCCCN)NC(=O)[C@H](CCCNC(=N)N)NC(=O)CNC(C)=O)[C@@H](C)CC)[C@@H](C)CC)C(C)C)[C@@H](C)CC)C(N)=O` (stereo partly specified) (Ac-GRKKRRQRRRPPQPKIIQSVGIS[ξNle]K[ξNle]-NH2), the CC50 at 24 h in data set [1] worked out at 1.2 µM. Also, the LC50 in the data set with Leishmania infantum [2] was found to be 4.3 µM; in the data set with Leishmania infantum [3], 1.5 µM.

For `CCCCC(NC(=O)[C@H](CCCCN)NC(=O)C(CCCC)NC(=O)[C@H](CO)NC(=O)[C@@H](NC(=O)CNC(=O)[C@H](CCCCN)NC(=O)[C@H](CO)NC(=O)[C@H](CCC(N)=O)NC(=O)[C@@H](NC(=O)[C@H](CCC(=O)O)NC(=O)[C@H](CCCCN)NC(=O)[C@@H]1CCCN1C(C)=O)[C@@H](C)CC)[C@@H](C)CC)C(N)=O` (stereo partly specified) (Ac-PKEIQSKGIS[ξNle]K[ξNle]-NH2), on Trypanothione reductase, the IC50 is greater than 75 µM. Moreover, the result with Leishmania infantum [4] and in the data set on Leishmania infantum [5] was inactive.

Turning to `CCCCC(NC(=O)[C@H](CCCCN)NC(=O)C(CCCC)NC(=O)[C@H](CO)NC(=O)[C@@H](NC(=O)[C@H](CCCCN)NC(=O)[C@@H](NC(=O)[C@H](CO)NC(=O)[C@H](CCC(N)=O)NC(=O)[C@H](CCC(=O)O)NC(=O)[C@@H](NC(=O)[C@H](CCCCN)NC(=O)[C@@H]1CCCN1C(C)=O)[C@@H](C)CC)C(C)C)[C@@H](C)CC)C(N)=O` (stereo partly specified) (Ac-PKIEQSVKIS[ξNle]K[ξNle]-NH2), on Trypanothione reductase, the IC50 was greater than 75 µM. Also, the result in the data set on Leishmania infantum [4] and in the data set on Leishmania infantum [5] was inactive.

In the case of `CCCCC(NC(=O)[C@H](CCCCN)NC(=O)[C@H](CCCCN)NC(=O)[C@H](CO)NC(=O)[C@@H](NC(=O)CNC(=O)[C@H](CCC(=O)O)NC(=O)[C@H](CO)NC(=O)[C@H](CCC(N)=O)NC(=O)[C@@H](NC(=O)[C@@H](NC(=O)[C@H](CCCCN)NC(=O)[C@@H]1CCCN1C(C)=O)[C@@H](C)CC)[C@@H](C)CC)[C@@H](C)CC)C(N)=O` (stereo partly specified) (Ac-PKIIQSEGISKK[ξNle]-NH2), the IC50 on Trypanothione reductase was greater than 75 µM. The outcome in the data set with Leishmania infantum [4] and with Leishmania infantum [5] was inactive.

As to `CCCCC(NC(=O)[C@H](CCCCN)NC(=O)C(CCCC)NC(=O)[C@H](CO)NC(=O)[C@@H](NC(=O)CNC(=O)[C@@H]1CCCCNC(=O)CC[C@H](NC(=O)[C@H](CCCCN)NC(=O)[C@@H]2CCCN2C(=O)[C@H](CCCNC(=N)N)NC(=O)[C@H](CCCNC(=N)N)NC(=O)[C@H](CCCNC(=N)N)NC(=O)[C@H](CCCNC(=N)N)NC(=O)[C@H](CCCNC(=N)N)NC(=O)[C@H](CCCNC(=N)N)NC(=O)[C@H](CCCNC(=N)N)NC(=O)[C@H](CCCNC(=N)N)NC(=O)[C@H](CCCNC(=N)N)NC(C)=O)C(=O)N[C@@H]([C@@H](C)CC)C(=O)N[C@@H](CCC(N)=O)C(=O)N[C@@H](CO)C(=O)N1)[C@@H](C)CC)C(N)=O` (stereo partly specified) (Ac-RRRRRRRRRPKEIQSKGIS[ξNle]K[ξNle]-NH2; lactam 12-16), the CC50 at 24 h in data set [1] was 2.5 µM. Also, the LC50 in the data set on Leishmania infantum [2] amounted to 3.5 µM; in the data set with Leishmania infantum [3], 2.8 µM.

Turning to `CCCCC(NC(=O)[C@H](CCCCN)NC(=O)C(CCCC)NC(=O)[C@H](CO)NC(=O)[C@@H](NC(=O)CNC(=O)[C@@H](NC(=O)[C@H](CO)NC(=O)[C@H](CCC(N)=O)NC(=O)[C@@H](NC(=O)[C@@H](NC(=O)[C@H](CCCCN)NC(=O)[C@@H]1CCCN1C(=O)[C@H](CCCNC(=N)N)NC(=O)[C@H](CCCNC(=N)N)NC(=O)[C@H](CCCNC(=N)N)NC(=O)[C@H](CCCNC(=N)N)NC(=O)[C@H](CCCNC(=N)N)NC(=O)[C@H](CCCNC(=N)N)NC(=O)[C@H](CCCNC(=N)N)NC(=O)[C@H](CCCNC(=N)N)NC(=O)[C@H](CCCNC(=N)N)NC(C)=O)[C@@H](C)CC)[C@@H](C)CC)C(C)C)[C@@H](C)CC)C(N)=O` (stereo partly specified) (Ac-RRRRRRRRRPKIIQSVGIS[ξNle]K[ξNle]-NH2), in data set [1], the CC50 at 24 h amounted to 1.7 µM. Also, the values for the LC50 in the data set with Leishmania infantum [2] and with Leishmania infantum [3] were 4.6 µM and 3.5 µM, respectively.

For the compound Ac-PKEIQSKGI-NH2, the IC50 at Trypanothione reductase was greater than 75 µM. In addition, the outcome with Leishmania infantum [4] and in the data set on Leishmania infantum [5] was inactive.

Regarding Ac-PKIEQSVKI-NH2, the IC50 at Trypanothione reductase stood at 47.4 µM. Moreover, the result with Leishmania infantum [4] and in the data set with Leishmania infantum [5] was inactive.
